Data reported in patent publication US5416231A, “Prostaglandin I2 derivatives” (Asahi Glass Company, Ltd., priority 1990, dated 1995).
Converted amounts (≈) assume the structure as drawn. Where a name gives a salt, the structure may show the parent alone.

Assays:
platelet aggregation [1] = assay: Inhibitory activities on platelet aggregation, in vitro (ADP-induced); type: cell-based, guinea pig (Hartley strain); conditions: platelet rich plasma, 10 minutes incubation, adenosine diphosphate 1 micro M; for IC50: Cavia porcellus, Platelet, 10 min
Description: (§1) From a guinea pig (Hartley strain), citric acid-added blood was obtained by a cardiac puncture. The blood was centrifuged at 120×g for 10 minutes, and the supernatant platelet rich plasma was separated. Measurement of platelet aggregation was conducted by means of an aggregometer in accordance with the Bone's nephelometry (G. V. R. Bone; Nature, vol 194, p 927, 1962). In a test in vitro, a test compound was added to the platelet rich plasma, and the mixture was incubated for 10 minutes. Then, adensoine diphosphate (1 micro M) was added to induce platelet aggregation. The degree of aggregation was represented by the maximum change in the light transmittance (the maximum aggregation rate) within 5 minutes after the addition of adenosine diphosphate, and the results are shown by a 50% inhibitory concentration. In a test ex vivo, a test compound was dissolved in ethanol, then suspended in a 0.5% tragacanth solution or in a 1% β-cyclodextrin solution and orally administered. From blood obtained by a cardiac puncture 30 minutes after the administration, a platelet rich plasma was prepared, and platelet aggregation was measured in the same manner as in the case of the test in vitro.

[2] = test system: vasopressin-induced ST depression; assay: Anti-anginal activities (Preventive activities on vasopressin-induced ST depression); type: in vivo, male rat (Donryou strain); conditions: for Oral administration MED (minimum effective dose showing a significant preventive activity) / minimal effective dose: 30 minutes prior to vasopressin (0.2 IU/kg), oral; for minimal effective dose: Rattus norvegicus, read-out: Oral administration MED (minimum effective dose showing a significant preventive activity)
Description: Vasopressin (0.2 IU/kg) was administered from the femoral vein of a male rat (Donryou strain) anesthetized with pentobarbital, and the electrocardiogram was recorded for 5 seconds each at intervals of 30 seconds over a period of 5 minutes after the administration. The depression of ST-segment (the average of five pulses) was calculated on the electrocardiogram. The test compound was dissolved in ethanol and intravenously administered 2 minutes prior to the administration of vasopressin, or after being dissolved in ethanol, suspended in a 0.5% tragacanth solution or in a 1% β-cyclodextrin solution and orally administered 30 minutes prior to the administration of vasopressin. The differences of the ST depression between the test compound-administered group and the non-treated control group (5 animals for each group) were analysed by two-way layout analysis of variance.

platelet aggregation [3] = assay: Inhibitory activities on platelet aggregation, ex vivo after oral administration (ADP-induced); type: in vivo, guinea pig (Hartley strain); conditions: 30 minutes after administration; for minimal effective dose: Cavia porcellus, Platelet, 0.5 h, read-out: ex vivo MED (minimum effective dose showing significant inhibitory effects, P < 0.05)
Description: as §1

male mice of ddY strain = assay: Acute toxicity, oral; type: in vivo; conditions: 20 mg/kg, 1% β-cyclodextrin solution, 7 days
Description: To male mice of ddY strain weighing 25-32 g (five animals per each group), a predetermined dose of a test compound dissolved in a small amount of ethanol and then diluted with a 1% β-cyclodextrin solution, was orally administered, and the mortality was recorded over a period of 7 days after the administration.

[4] = Solvent Y: 1% β-cyclodextrin solution
[5] = Solvent X: 0.5% tragacanth solution

| Compound | IC50 (platelet aggregation [1]) [ng/mL] | in vitro IC50 (platelet aggregation [1]) [ng/mL] | minimal effective dose (platelet aggregation [3]; [4]) [mg/kg] | also measured |
| --- | --- | --- | --- | --- |
| CCCCC(C)C[C@H](O)/C=C/[C@@H]1[C@@H]2[C@H](C[C@H]1O)O/C(=C\C1CC(C(=O)O)C1)[C@@H]2F (single isomer, unassigned) [Compound E-a, sodium salt of 2,4-methylene-7α-fluoro-17,20-dimethylPGI2] | 1.13 | – | – | Oral administration MED (minimum effective dose showing a significant preventive activity) [2, 4]: 0.1 mg/kg |
| CCCCC(C)C[C@H](O)/C=C/[C@@H]1[C@@H]2[C@H](C[C@H]1O)O/C(=C\C1CC(C(=O)O)C1)[C@@H]2F (single isomer, unassigned) [Compound E-b, sodium salt of 2,4-methylene-7α-fluoro-17,20-dimethylPGI2] | – | 1.70 | 0.3 | minimal effective dose [2, 4]: 0.1 mg/kg; Number of dead animals/Number of test animals (male mice of ddY strain): 0/5 |
| CCCCC(C)C[C@H](O)/C=C/[C@@H]1[C@@H]2[C@H](C[C@H]1O)O/C(=C\CC1CC1C(=O)O)[C@@H]2F (stereo partly drawn) [Compound A, sodium salt of 2,3-methylene-7α-fluoro-17,20-dimethylPGI2] | 18.3 | – | – | – |
| CCCCC(C)C[C@H](O)/C=C/[C@@H]1[C@@H]2[C@H](C[C@H]1O)O/C(=C\C1CC(C(=O)OC)C1)[C@@H]2F (stereo partly drawn) [Compound D-a, methyl ester of 2,4-methylene-7α-fluoro-17,20-dimethylPGI2] | 2.88 (≈ 6.78 nM) | – | 0.3 | – |
| CCCCC(C)C[C@H](O)/C=C/[C@@H]1[C@@H]2[C@H](C[C@H]1O)O/C(=C\C1CC(C(=O)OC)C1)[C@@H]2F (stereo partly drawn) [Compound D-b, methyl ester of 2,4-methylene-7α-fluoro-17,20-dimethylPGI2] | – | 1.50 | – | ex vivo MED (minimum effective dose showing significant inhibitory effects, P < 0.05) (platelet aggregation [3]; [4]): 0.3 mg/kg; minimal effective dose [2, 4]: 0.1 mg/kg; Number of dead animals/Number of test animals (male mice of ddY strain): 0/5 |
| CCCCC[C@H](O)/C=C/[C@@H]1[C@H]2C/C(=C/CCCC(=O)O)O[C@H]2C[C@H]1O [Compound F, natural PGI2, reference compound] | – | – | > 10 | – |
| methyl ester of (1S*,3R*)-2,4-ethylene-7α-flouro-17,20-dimethylPGI2 [Compound C] | – | 5.50 | – | – |
| methyl ester of (1S*,3S*)-2,4-ethylene-7α-fluoro-17,20-dimethylPGI2 [Compound B-b] | – | 0.87 | – | ex vivo MED (minimum effective dose showing significant inhibitory effects, P < 0.05) (platelet aggregation [3]; [5]): 0.3 mg/kg; Intravenous administration MED (minimum effective dose showing a significant preventive activity) ([2]; intravenous, in ethanol, 2 minutes prior to vasopressin (0.2 IU/kg)): 0.001 mg/kg; Oral administration MED (minimum effective dose showing a significant preventive activity) [2, 5]: 0.01 mg/kg |
